{"source": "patent US11980613B2", "about": "“Methods for reversing HIV latency using BAF complex modulating compounds” (priority 2018, dated 2024)", "key": {"[1]": {"system": "Bmi1-luciferase reporter cell line", "assay": "Bmi1-luciferase reporter assay (screen for inhibitors of BAF-mediated transcriptional repression)", "type": "cell-based, mouse", "conditions": "grading in words", "description": "Low passage mESCs from 129 mice (20 million, p10) were electroporated with 40 μg of a linearized construct consisting of 2 kb homology upstream of the Bmi1 locus, firefly luciferase at exon 1 of Bmi1 followed by loxP neo and a 6 kb 3′ homology arm with thymidine kinase outside the homology arms. The cells were plated on 10 gelatin treated plates (60 mm) of irradiated neo resistant MEFs and selected with G418 and ganciclovir for 5 days. 384 colonies were selected, trypsinized and replated in gelatin treated 24-well plates for expansion. The cells were split and DNA was isolated for digestions with EcoRI or BamHI. We confirmed the successful homologous recombination in 7 out 384 colonies using Southern blot analysis at both the 5′ (EcoRI) and 3′ (BamHI) end (see Table S2 of Marian et al., “Small Molecule Targeting of Specific BAF (mSWI/SNF) Complexes for HIV Latency Reversal,” Cell Chem. Biol. (Dec. 20, 2018) 25: 1443-1445). We deleted the neomycin cassette using transfected Cre recombinase and confirmed the excision at all clones using a second round of Southern blot analysis at the 3′ end (BamHI).\n3. Compound Treatment: 10,000 cells in 30 μL ESC media were plated in white 384 well CellBind plates. The cells were cultured in a 37° C., 5% CO2 incubator for 24 h and 100 nL/well of 0.75 mM of positive control (Pubchem SID: 85814977) or 100 nL/well of 3.75 mM compound library (primary screen) was added via pin transfer into plates. There was no effect on assay readout at DMSO concentrations up to 0.5%. The cells were cultured in a 37° C., 5% CO2 incubator for 24 h for luciferase reporter assay and 18 h for qRT-PCR assay. 4. Luciferase assay: (PubChem AID 602393 primary, PubChem AID 651717 confirmatory.) The assay plates were removed from the incubator and equilibrates for 10 minutes to room temperature. Promega SteadyGlo® solution (10 μL/well) was added to each well of the assay plates. The assay plates were mixed at 1000 rpm for 15 seconds and then incubated for 10 minutes at room temperature. The luciferase levels were read on a Perkin Elmer Envision in Ultra Sensitive Luminescence mode. Signals remained stable up to 2 hours. 5. EqRT-PCR secondary screen (PubChem AID 743180, 743177, 743176) The qRTPCR screen was performed as published^54. In brief, 5,000 ES cells were plated on gelatin-coated 384-well tissue culture plates and cultured in a 37C, 5% CO2 incubator. 24 h later, hit compounds in 100 nL DMSO were treated at eight different doses. 18 h after compound treatment cells were washed two times with 100 μL PBS and all excess PBS was removed by centrifuging the plates upside down at 1000 rpm. The Ambion® Cells-to-Ct kit was used to generate cDNA. In brief, the cells were lysed in the plate in 10 μL lysis buffer containing DNase for 10 minutes and quenched with 1 μL lysis stop buffer. The lysate (2 μL) was added to 5 μL RT reaction buffer (2×), 2.5 μL nuclease-free water and 0.5 μL Reverse transcriptase (20×) and incubated at 37° C. for 60 minutes and 95° C. for 1 minute to generate 10 μL of cDNA. cDNA (1 μL) was used in each 5 μL qPCR reaction with Roche master mix and TaqMan probes (Applied Biosystems) for Bmi1-FAM (Mm00776122_gH), Ring1a-FAM (Mm01278940_m1/4331182), or Fgf4-FAM (Mm00438916_g1/4351372) alongside actin-VIC (4352341E) for a loading control. The qPCR was run accordingly: 95° C. for 10 minutes Then 55 cycles of: 95° C. for 10 seconds followed by 60° C. for 30 seconds. The fold increase in transcription was calculated using the ΔΔCT method^84. 6. Viability Assays (PubChem AID: 743188, 743189, 743190, 1053139, 1053140, 1053141)"}, "[2]": {"system": "human primary CD4+ T cells", "assay": "T cell activation markers CD25 and CD69", "type": "cell-based", "conditions": "24 and 72 hours; two healthy donors", "description": "24. Activation markers, apoptosis and viability of primary CD4+ T cells: Activation markers, namely CD25 and CD69 were analyzed as described previously^55. Briefly, CD4+ T cells were treated with DMSO, compound, or PMA/Ionomycin for 24 and 72 hours. Cells were collected, washed with PBS and stained for 30 min at 4° C. with α-CD25-APC (17-0259-42, eBioscience) and α-CD69-FITC (11-0699-42, eBioscience). Following two washes with PBS, cells were fixed with 1% HCHO at 4° C. and analyzed by flow cytometry with Becton Dickinson Fortessa instrument. To determine percent of apoptotic cells after treatment cells were stimulated for 24 and 72 hours and stained with anti-AnnexinV-PE (BD Biosciences, cat. 556454) in the presence of 2.5 mM CaCl2 for 20 min at 4° C. Cells were analyzed by Becton Dickinson Fortessa flow cytometer. Data represents the average of six experiments performed on cells from different healthy donors. Viability of ex-vivo infected primary CD4+ cells was determined by flow cytometry on the basis of forward versus side scatter analysis. 25. FAIRE: FAIRE experiment was performed as described, with minor modifications^55. Eighteen hours prior to analysis, J-Lat 11.1 cells were treated with BAFi's where indicated. Cells were fixed for 10 min by adding formaldehyde to a final concentration of 1% at room temperature. Twenty million cells were used per FAIRE experiment. […]"}}}
{"compound": "CO[C@H]1CN(C)C(=O)c2cc(NC(=O)OC(C)C)ccc2OC[C@H](C)N(Cc2ccc(-c3ccccn3)cc2)C[C@@H]1C", "note": "[BRD-K80443127]", "values": [{"measurement": "activity in the Bmi1 luciferase reporter assays", "setting": "[1]", "value": "high activity"}, {"measurement": "CD25 and CD69 expression", "setting": "[2]", "value": "no effect"}]}
